Reference: patent US20110040086A1, “Novel Beta-Lactam Antibiotics, Methods for Their Production, and Their Use” (DRITTE PATENTPORTFOLIO BETEILIGUNGSGESELLSCHAFT MB, priority 2007, published 2011)

How the values were obtained:
S. aureus ATCC 6538 = assay: agar diffusion test (Test System II, multi-resistant germs); format: cell-based, Staphylococcus aureus
Summary of the method: (§1)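 Disc diffusion on Müller-Hinton II agar; inoculum McFarland 0.5 in saline, streaked in three directions. Discs carry 10/50/100 μg compound (MeOH or water). 37 °C, 18-20 h; read-out: zone-of-inhibition diameter.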

S. aureus 38418 = assay: as above; format: cell-based, Staphylococcus aureus
Summary of the method: as §1

[1] = tested on: Staphylococcus aureus ATCC 6538; assay: mouse infected with Staphylococcus aureus infection model (survival); format: in vivo, BALB/c mice
Experimental: Method for Effectiveness In Vivo with the Mouse Infected with Staphylococcus aureus Model
On Day 0, at least 3 BALB/c mice per test substance (Table 8) or controls are pretreated with cyclophosphamide (250 mg/kg) in 250 μl PBS inta peritoneal (i.p.).
On Day 2, the animals again received 100 mg/kg i.p.
On Day 2, a colony of the test germ is transferred from a growing agar plate (Müller-Hinton-Agar, Beckton Dickinson) into a flask with 10 ml CASO broth (CASO-B., Soyabean peptone-Casein peptone broth, SIFIN, 30 g/l) and is cultivated overnight at 37° C. and a shaking frequency of 250 rpm.
On Day 3, the pre-culture (Vk) is diluted 1:50 with CASO-B and further cultivated ca. 2 hours until an extinction in the medium of 0.6 at a wavelength of 550 nm is reached. Then, it is grown 1× with PBS at room temperature and set again to an extinction of 0.6.
At least 3 animals for a test substance or controls are infected with 10 μl/g body weight grown germs of a bacteria suspension with the extinction 0.6 (ca. 10^10-10^12 CFU, Colony forming units) i.p.
After 30 minutes, antibiotic solution is injected into the mice in a volume of 200 μl PBS with 3% DMSO i.p. 6 hours later, the second antibiotic injection is performed at the same concentration. […]

S. epidermidis 125 = assay: agar diffusion test (Test System II, multi-resistant germs); format: cell-based, Staphylococcus epidermidis
Summary of the method: as §1

[2] = tested on: S. aureus North Germany strain; assay: as above; format: cell-based, Staphylococcus aureus; set-up: key: r = resistant (no detectable zone of inhibition)
Summary of the method: as §1

S. aureus 36881 = assay: as above; format: cell-based, Staphylococcus aureus; set-up: key: r = resistant (no detectable zone of inhibition)
Summary of the method: as §1

S. aureus 520 = assay: as above; format: cell-based, Staphylococcus aureus; set-up: key: r = resistant (no detectable zone of inhibition)
Summary of the method: as §1

S. epidermidis 847 = assay: as above; format: cell-based, Staphylococcus epidermidis; set-up: key: r = resistant (no detectable zone of inhibition)
Summary of the method: as §1

[3] = tested on: Enterococcus faecalis 769; assay: as above; format: cell-based; set-up: key: r = resistant (no detectable zone of inhibition)
Summary of the method: as §1

[4] = tested on: Staphylococcus aureus 315; assay: as above; format: cell-based; set-up: key: r = resistant (no detectable zone of inhibition)
Summary of the method: as §1

[5] = tested on: Staphylococcus haemolyticus 535; assay: as above; format: cell-based; set-up: key: r = resistant (no detectable zone of inhibition)
Summary of the method: as §1

[6] = logP value by HPLC according to Donovan et al.; conditions: HPLC, methanol/0.1% phosphoric acid pH 2
Experimental: • Operating temperature 18-24° C. • Flow 1.5 mL/min • Linear gradient (methanol/0.1% phosphoric acid pH 2) from 10% to 100% methanol in 9.4 min, equilibrium time between 2 runs 6 min
ca. 0.5 mg of analyte is added to 0.5 ml of a standard solution (440 mg methyl phenyl sulfonate and 380 μl toluene in 150 mL methanol). 2 μl of this sample solution is injected.
Because the distribution coefficients of the two standards running in each test are known, the distribution coefficient of the analytes can be determined from the relationships of the analyte/standard retention times.

[7] = Quantity n 0.02 mol (first line per ingredient)
[8] = Quantity n 0.1 mol (second line per ingredient)
[9] = Quantity n 0.2 mol (third line per ingredient)
[10] = Quantity n 0.02 (first line per ingredient)
[11] = Quantity n 0.1 (second line per ingredient)
[12] = Quantity n 0.2 (third line per ingredient)

Compound: CC1=CC(NC(C(=O)NC2C(=O)N3C(C(=O)O)=C(C)CSC23)c2ccc(O)cc2)=CC(=O)C1=O (stereo not shown) [1q]
- Diameter of zone of inhibition, S. aureus ATCC 6538 (S. aureus ATCC 6538; [7]): 16 mm
- Diameter of zone of inhibition, S. aureus ATCC 6538 (S. aureus ATCC 6538; [8]): 20 mm
- Diameter of zone of inhibition, S. aureus ATCC 6538 (S. aureus ATCC 6538; [9]): 26 mm
- Diameter of zone of inhibition, S. aureas 38418 (S. aureus 38418; Quantity n 0.02): 10^2 mm
- Diameter of zone of inhibition, S. aureas 38418 (S. aureus 38418; Quantity n 0.1): 18 mm
- Diameter of zone of inhibition, S. aureas 38418 (S. aureus 38418; Quantity n 0.2): 22 mm
- Survival/tested mice n/n ([1]; 2 × 0.5 mg (25 mg/kg) i.p.): 3/6
- Survival/tested mice n/n ([1]; 2 × 1.0 mg (50 mg/kg) i.p.): 1/3
- Diameter of zone of inhibition, S. epidermidis 125 (S. epidermidis 125; [7]): 12 mm
- Diameter of zone of inhibition, S. epidermidis 125 (S. epidermidis 125; [8]): 20 mm
- Diameter of zone of inhibition, S. epidermidis 125 (S. epidermidis 125; [9]): 26 mm
- Diameter of zone of inhibition, S. aureus North German strain [2, 7]: r
- Diameter of zone of inhibition, S. aureus North German strain [2, 8]: 10 mm
- Diameter of zone of inhibition, S. aureus North German strain [2, 9]: 12 mm
- Diameter of zone of inhibition, S. aureas 36881 (S. aureus 36881; Quantity n 0.02 mol): r
- Diameter of zone of inhibition, S. aureas 36881 (S. aureus 36881; Quantity n 0.1 mol): r
- Diameter of zone of inhibition, S. aureas 36881 (S. aureus 36881; Quantity n 0.2 mol): 10 mm
- Diameter of zone of inhibition, S. aureus 520 (S. aureus 520; Quantity n 0.02 mol): r
- Diameter of zone of inhibition, S. aureus 520 (S. aureus 520; Quantity n 0.1 mol): r
- Diameter of zone of inhibition, S. aureus 520 (S. aureus 520; Quantity n 0.2 mol): 10 mm
- Diameter of zone of inhibition, S. epidermidis 847 (S. epidermidis 847; [10]): r
- Diameter of zone of inhibition, S. epidermidis 847 (S. epidermidis 847; [11]): 14 mm
- Diameter of zone of inhibition, S. epidermidis 847 (S. epidermidis 847; [12]): 16 mm
- Diameter of zone of inhibition, Enterococcus faecalis 769 ([3]; Quantity n 0.02): r^1
- Diameter of zone of inhibition, Enterococcus faecalis 769 ([3]; Quantity n 0.1): r
- Diameter of zone of inhibition, Enterococcus faecalis 769 ([3]; Quantity n 0.2): 10 mm
- Diameter of zone of inhibition, Staphylococcus aureus 315 ([4]; Quantity n 0.02 mol): r
- Diameter of zone of inhibition, Staphylococcus aureus 315 ([4]; Quantity n 0.1 mol): 10 mm
- Diameter of zone of inhibition, Staphylococcus aureus 315 ([4]; Quantity n 0.2 mol): 14 mm
- Diameter of zone of inhibition [5, 7]: r
- Diameter of zone of inhibition [5, 8]: r
- Diameter of zone of inhibition [5, 9]: 10 mm

Compound: 3-chlorine-7-[2-(5-methyl-3,4-dioxocyclohexa-1,5-dienylamino)-2-phenyl-acetylamino]-8-oxo-5-azabicyclo[4.2.0]oct-3-ene-4-carboxylic acid [1s]
- Diameter of zone of inhibition, S. aureus ATCC 6538 (S. aureus ATCC 6538; [7]): 20 mm
- Diameter of zone of inhibition, S. aureus ATCC 6538 (S. aureus ATCC 6538; [8]): 30 mm
- Diameter of zone of inhibition, S. aureus ATCC 6538 (S. aureus ATCC 6538; [9]): >30 mm
- Diameter of zone of inhibition, S. aureas 38418 (S. aureus 38418; Quantity n 0.02): 14 mm
- Diameter of zone of inhibition, S. aureas 38418 (S. aureus 38418; Quantity n 0.1): 24 mm
- Diameter of zone of inhibition, S. aureas 38418 (S. aureus 38418; Quantity n 0.2): 28 mm
- Diameter of zone of inhibition, S. epidermidis 125 (S. epidermidis 125; [7]): 14 mm
- Diameter of zone of inhibition, S. epidermidis 125 (S. epidermidis 125; [8]): 22 mm
- Diameter of zone of inhibition, S. epidermidis 125 (S. epidermidis 125; [9]): 26 mm
- Diameter of zone of inhibition, S. aureus North German strain [2, 7]: r
- Diameter of zone of inhibition, S. aureus North German strain [2, 8]: 8 mm
- Diameter of zone of inhibition, S. aureus North German strain [2, 9]: 14 mm
- Diameter of zone of inhibition, S. aureas 36881 (S. aureus 36881; Quantity n 0.02 mol): r
- Diameter of zone of inhibition, S. aureas 36881 (S. aureus 36881; Quantity n 0.1 mol): r
- Diameter of zone of inhibition, S. aureas 36881 (S. aureus 36881; Quantity n 0.2 mol): 10 mm
- Diameter of zone of inhibition, S. aureus 520 (S. aureus 520; Quantity n 0.02 mol): r
- Diameter of zone of inhibition, S. aureus 520 (S. aureus 520; Quantity n 0.1 mol): r
- Diameter of zone of inhibition, S. aureus 520 (S. aureus 520; Quantity n 0.2 mol): 10 mm
- Diameter of zone of inhibition, S. epidermidis 847 (S. epidermidis 847; [10]): r
- Diameter of zone of inhibition, S. epidermidis 847 (S. epidermidis 847; [11]): 14 mm
- Diameter of zone of inhibition, S. epidermidis 847 (S. epidermidis 847; [12]): 18 mm
- Diameter of zone of inhibition, Enterococcus faecalis 769 ([3]; Quantity n 0.02): r
- Diameter of zone of inhibition, Enterococcus faecalis 769 ([3]; Quantity n 0.1): r
- Diameter of zone of inhibition, Enterococcus faecalis 769 ([3]; Quantity n 0.2): r
- Diameter of zone of inhibition, Staphylococcus aureus 315 ([4]; Quantity n 0.02 mol): r
- Diameter of zone of inhibition, Staphylococcus aureus 315 ([4]; Quantity n 0.1 mol): 8 mm
- Diameter of zone of inhibition, Staphylococcus aureus 315 ([4]; Quantity n 0.2 mol): 12 mm
- Diameter of zone of inhibition [5, 7]: r
- Diameter of zone of inhibition [5, 8]: r
- Diameter of zone of inhibition [5, 9]: 10 mm

Compound: O=C(O)C1=C(Cl)CC2C(=O)C(NC(=O)C(NC3=C(C(=O)NCCO)C(=O)C=CC3=O)c3ccccc3)C2N1 (stereo not shown) [1m, 3-chlorine-7-{2-[2-(2-hydroxyethylcarbamoyl)-3,6-dioxocyclohexa-1,4-dienylamino]-2-phenyl-acetylamino}-8-oxo-5-azabicyclo[4.2.0]oct-3-ene-4-carboxylic acid]
- Diameter of zone of inhibition (S. aureus ATCC 6538; Quantity n 0.018): 22 mm
- Diameter of zone of inhibition (S. aureus ATCC 6538; Quantity n 0.092): >30 mm
- Diameter of zone of inhibition (S. aureus ATCC 6538; Quantity n 0.18): >30 mm
- Diameter of zone of inhibition (S. aureus 38418; Quantity n [mol] 0.018): 20 mm
- Diameter of zone of inhibition (S. aureus 38418; Quantity n [mol] 0.092): 30 mm
- Diameter of zone of inhibition (S. aureus 38418; Quantity n [mol] 0.18): >30 mm
- Survival/tested mice n/n ([1]; 2 × 0.5 mg (25 mg/kg) i.p.): 9/9
- logP value [6]: 1.62
- Diameter of zone of inhibition (S. epidermidis 125; Quantity n 0.018): 20 mm
- Diameter of zone of inhibition (S. epidermidis 125; Quantity n 0.092): 26 mm
- Diameter of zone of inhibition (S. epidermidis 125; Quantity n 0.18): 28 mm
- Diameter of zone of inhibition ([2]; Quantity n 0.018): r
- Diameter of zone of inhibition ([2]; Quantity n 0.092): r
- Diameter of zone of inhibition ([2]; Quantity n 0.18): 12 mm
- Diameter of zone of inhibition (S. aureus 36881; Quantity n 0.018): r
- Diameter of zone of inhibition (S. aureus 36881; Quantity n 0.092): 16 mm
- Diameter of zone of inhibition (S. aureus 36881; Quantity n 0.18): 20 mm
- Diameter of zone of inhibition (S. aureus 520; Quantity n [mol] 0.018): r
- Diameter of zone of inhibition (S. aureus 520; Quantity n [mol] 0.092): r
- Diameter of zone of inhibition (S. aureus 520; Quantity n [mol] 0.18): 8 mm
- Diameter of zone of inhibition (S. epidermidis 847; Quantity n [mol] 0.018): r
- Diameter of zone of inhibition (S. epidermidis 847; Quantity n [mol] 0.092): 14 mm
- Diameter of zone of inhibition (S. epidermidis 847; Quantity n [mol] 0.18): 18 mm
- Diameter of zone of inhibition ([3]; Quantity n 0.018): r
- Diameter of zone of inhibition ([3]; Quantity n 0.092): r
- Diameter of zone of inhibition ([3]; Quantity n 0.18): r
- Diameter of zone of inhibition ([4]; Quantity n 0.018): r
- Diameter of zone of inhibition ([4]; Quantity n 0.092): r
- Diameter of zone of inhibition ([4]; Quantity n 0.18): 8 mm
